The subject of experiment [1] is HCT-116 human colorectal carcinoma cells. Description: Cell-proliferation assay using Alamar Blue dye.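 Further: cells exposed to compound for about 4 days, then Alamar Blue added and dye fluorescence read after about 4 h, compared with medium-only control wells.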 Format: cell-based. Conditions: Homo sapiens.
Experiment [2] addresses recombinant human PIM1 (Homo sapiens (Human), UniProt P11309). Description: PIM-1 kinase activity in cell-free in vitro assay. Format: biochemical. The settings on record: cell-free assay; for inhibition at 0.5 µM: 500 nM compound, read-out: PIM-1: % inh 500 nM.
For experiment [3], the system named is Jurkat. Description: Cell proliferation modulatory activity, Jurkat. Conditions: Homo sapiens. Format: cell-based.
Where [4] appears, read: HCT-116, read-out: HCT-116 (uM), cell proliferation modulatory activity, HCT-116, second HCT-116 column (c8).
The mark [5] stands for this setting: HCT-116, HCT-116, second HCT-116 column (c8), read-out: HCT-116 (uM), cell proliferation modulatory activity.

Read-outs that look alike come from different tables or passages of the source.

recombinant human PIM1, sequence (P11309 whole entry): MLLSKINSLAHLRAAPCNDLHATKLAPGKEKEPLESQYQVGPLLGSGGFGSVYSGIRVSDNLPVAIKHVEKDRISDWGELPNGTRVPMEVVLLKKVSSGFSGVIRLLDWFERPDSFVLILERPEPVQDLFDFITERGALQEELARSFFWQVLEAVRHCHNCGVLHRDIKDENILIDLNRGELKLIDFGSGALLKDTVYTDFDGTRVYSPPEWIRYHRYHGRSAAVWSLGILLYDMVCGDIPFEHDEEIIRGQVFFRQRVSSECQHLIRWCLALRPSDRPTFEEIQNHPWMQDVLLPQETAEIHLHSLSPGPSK

`O=C(O)c1ccc2c(c1)nc(Nc1ccccc1)c1nc(NCCCN3CCOCC3)ncc12`: the values for the IC50 in experiment [1] (setting [4]) and in experiment [3] were more than 10 µM and 2.18 µM, respectively. Also, the inhibition at 0.5 µM in experiment [2] is 33.7%.
Taken in the same sequence, the figures for `C#Cc1cccc(Nc2nc3cc(C(=O)O)ccc3c3cnc(NC4CC4)nc23)c1` were 7.3 µM, 1.27 µM and -38.6%.
Consider `C#Cc1cccc(Nc2nc3cc(C(=O)O)ccc3c3cnc(NC)nc23)c1`, for which the figures for the IC50 in experiment [1] (setting [4]), in experiment [2] and in experiment [3] were 4.69 µM, 0.661 µM and 1.29 µM, respectively. In experiment [2], the inhibition at 0.5 µM is 68.2%.
As to `CNc1ncc2c(n1)c(Nc1cccc(Cl)c1)nc1cc(C(=O)O)ccc12`, the IC50 in experiment [1] (setting [4]) is more than 10 µM; in experiment [3] it was 1.09 µM. Also, the inhibition at 0.5 µM in experiment [2] turned out to be 51.5%.
Consider `CNc1ncc2c(n1)c(NC1CC1)nc1cc(C(=O)O)ccc12`, for which the IC50 was more than 10 µM in experiment [1] (setting [4]), 0.535 µM in experiment [2] and 9.68 µM in experiment [3]. In addition, in experiment [2], the inhibition at 0.5 µM was 52.4%.
For `Nc1ncc2c(n1)c(Nc1cccc(C(F)(F)F)c1)nc1cc(C(=O)O)ccc12`, the IC50 is more than 10 µM in experiment [1] (setting [4]), 0.443 µM in experiment [2] and 2.66 µM in experiment [3]. The inhibition at 0.5 µM in experiment [2] stood at 74.3%.
Consider `O=C(O)c1ccc2c(c1)nc(NC1CC1)c1nc(NCc3ccncc3)ncc12`, for which the IC50 in experiment [1] (setting [4]) was more than 10 µM; in experiment [3] it was 35.6 µM. The inhibition at 0.5 µM in experiment [2] came out at 8.18%.
Taken in the same sequence, the figures for `O=C(O)c1ccc2c(c1)nc(NC1CC1)c1nc(NCc3ccccn3)ncc12` were more than 10 µM, 23.3 µM and 11.2%.
Taken in the same sequence, the figures for `O=C(O)c1ccc2c(c1)nc(NC1CC1)c1nc(NCCc3ccccc3)ncc12` were more than 10 µM, 0.826 µM and -11.1%.
As to `CC(C)Nc1ncc2c(n1)c(NC1CC1)nc1cc(C(=O)O)ccc12`, the IC50 was more than 10 µM in experiment [1] (setting [4]), more than 1.1 µM in experiment [2] and 2.14 µM in experiment [3]. Besides, the inhibition at 0.5 µM in experiment [2] was determined as 73.3%.
Turning to `O=C(O)c1ccc2c(c1)nc(NC1CC1)c1nc(Nc3cccc(C(F)(F)F)c3)ncc12`, the IC50 in experiment [1] (setting [4]) is more than 10 µM; in experiment [3], 2.39 µM. For the same compound, the inhibition at 0.5 µM in experiment [2] came out at 44.2%.
Regarding `O=C(O)c1ccc2c(c1)nc(NC1CC1)c1nc(NNCCO)ncc12`, the values for the IC50 in experiment [1] (setting [5]) and in experiment [3] were more than 10 µM and more than 50 µM, respectively. Further, the inhibition at 0.5 µM in experiment [2] is -37%.
Taken in the same sequence, the figures for `O=C(O)c1ccc2c(c1)nc(NC1CC1)c1nc(NC3CCNCC3)ncc12` were more than 10 µM, more than 50 µM and 18.9%.
Taken in the same sequence, the figures for `COC(=O)c1ccc2c(c1)nc(N)c1nc(SC)ncc12` were 4.77 µM, 1.14 µM and -13.2%.
Taken in the same sequence, the figures for `C#Cc1cccc(Nc2nc3cc(C(=O)NC)ccc3c3cncnc23)c1` were 7.17 µM, 1.95 µM and -28.3%.
With `C#Cc1cccc(Nc2nc3cc(C(=O)NC4CC4)ccc3c3cncnc23)c1`, the IC50 in experiment [1] (setting [5]) is 3.49 µM; in experiment [3], 1.54 µM. In experiment [2], the inhibition at 0.5 µM is -13.1%.
`O=C(O)c1ccc2c(c1)nc(NC1CC1)c1nc(Nc3ccc(F)cc3)ncc12`: the figures for the IC50 in experiment [1] (setting [5]), in experiment [2] and in experiment [3] were more than 10 µM, 1.07 µM and 5.02 µM, respectively. Moreover, in experiment [2], the inhibition at 0.5 µM is 49.3%.
Take `O=C(O)c1ccc2c(c1)nc(NC1CC1)c1nc(Nc3ccc(F)c(Cl)c3)ncc12`: the IC50 was more than 10 µM in experiment [1] (setting [5]) and 26.6 µM in experiment [3]. In experiment [2], the inhibition at 0.5 µM was 8.76%.
Consider `COc1ccc(Nc2ncc3c(n2)c(NC2CC2)nc2cc(C(=O)O)ccc23)cc1Cl`, for which the IC50 in experiment [1] (setting [5]) stood at 2.31 µM; in experiment [3] it was 9.17 µM. Besides, the inhibition at 0.5 µM in experiment [2] came to 38.7%.
Regarding `O=C(O)c1ccc2c(c1)nc(NC1CC1)c1nc(Nc3cccc4ccccc34)ncc12`, the values for the IC50 in experiment [1] (setting [5]) and in experiment [3] were more than 10 µM and 23.3 µM, respectively. For the same compound, the inhibition at 0.5 µM in experiment [2] is 22.9%.
For `Cc1ccccc1Nc1ncc2c(n1)c(NC1CC1)nc1cc(C(=O)O)ccc12`, the IC50 in experiment [1] (setting [5]) is more than 10 µM; in experiment [2], 0.994 µM; in experiment [3] it was 18.6 µM. Besides, the inhibition at 0.5 µM in experiment [2] was 52.8%.
As for `CCOc1cccc(Nc2ncc3c(n2)c(NC2CC2)nc2cc(C(=O)O)ccc23)c1`, the figures for the IC50 in experiment [1] (setting [5]) and in experiment [3] were 3.77 µM and 5.17 µM, respectively. The inhibition at 0.5 µM in experiment [2] was found to be 32.8%.
Taken in the same sequence, the figures for `CCOc1ccc(Nc2ncc3c(n2)c(NC2CC2)nc2cc(C(=O)O)ccc23)cc1` were more than 10 µM, 9.26 µM and 45.9%.
Turning to `CC(C)Oc1ccc(Nc2ncc3c(n2)c(NC2CC2)nc2cc(C(=O)O)ccc23)cc1`, the IC50 in experiment [1] (setting [5]) was more than 10 µM; in experiment [3], 18.9 µM. The inhibition at 0.5 µM in experiment [2] was 26.3%.
Taken in the same sequence, the figures for `CC(=O)Nc1cccc(Nc2ncc3c(n2)c(NC2CC2)nc2cc(C(=O)O)ccc23)c1` were more than 10 µM, more than 62.5 µM and 32%.
Consider `O=C(O)c1ccc2c(c1)nc(NC1CC1)c1nc(Nc3cc(F)ccc3F)ncc12`, for which the IC50 in experiment [1] (setting [5]) was more than 10 µM; in experiment [2], more than 1.1 µM; in experiment [3] it was 15.7 µM. Moreover, the inhibition at 0.5 µM in experiment [2] stood at 50.4%.
Turning to `O=C(O)c1ccc2c(c1)nc(NC1CC1)c1nc(Nc3cc(F)cc(F)c3)ncc12`, the IC50 in experiment [1] (setting [5]) was more than 10 µM; in experiment [3], 35.4 µM. In addition, the inhibition at 0.5 µM in experiment [2] was found to be 46.3%.
Taken in the same sequence, the figures for `Nc1nc2cc(C(=O)O)ccc2c2cnc(NC3CC3)nc12` were more than 10 µM, 55.2 µM and 0.938%.
As for `O=C(O)c1ccc2c(c1)nc(Nc1ccc(Oc3ccccc3)cc1)c1ccncc12`, the IC50 was more than 10 µM in experiment [1] (setting [5]), more than 1.1 µM in experiment [2] and 22.9 µM in experiment [3]. Further, the inhibition at 0.5 µM in experiment [2] stood at 57.2%.
As to `C#Cc1cccc(Nc2nc3cc(C(=O)N4CCCC4)ccc3c3cncnc23)c1`, the figures for the IC50 in experiment [1] (setting [5]) and in experiment [3] were more than 10 µM and 13.3 µM, respectively. Moreover, the inhibition at 0.5 µM in experiment [2] is -7.6%.
Taken in the same sequence, the figures for `C#Cc1cccc(Nc2nc3cc(C(=O)N4CCOCC4)ccc3c3cncnc23)c1` were more than 10 µM, more than 30 µM and -17.6%.
Taken in the same sequence, the figures for `C#Cc1cccc(Nc2nc3cc(C(=O)N(C)c4ccccc4)ccc3c3cncnc23)c1` were more than 10 µM, 18.8 µM and -11.2%.
Taken in the same sequence, the figures for `C#Cc1cccc(Nc2nc3cc(C(=O)NCc4ccc(C#N)cc4)ccc3c3cncnc23)c1` were more than 10 µM, 9.09 µM and -14.6%.
With `C#Cc1cccc(Nc2nc3cc(C(=O)N(C)CCN(C)C)ccc3c3cncnc23)c1`, the IC50 in experiment [1] (setting [5]) worked out at 4.39 µM; in experiment [3], 4.37 µM. Moreover, the inhibition at 0.5 µM in experiment [2] was -15.5%.
Taken in the same sequence, the figures for `C#Cc1cccc(Nc2nc3cc(C(=O)N4CCCN(C)CC4)ccc3c3cncnc23)c1` were more than 10 µM, 3.22 µM and -11.2%.
For the compound `CSc1ncc2c(n1)c(N(C)c1ccccc1)nc1cc(C(=O)O)ccc12`, the IC50 in experiment [1] (setting [5]) was more than 10 µM; in experiment [2], 1.09 µM; in experiment [3], more than 30 µM. In addition, the inhibition at 0.5 µM in experiment [2] was determined as 48.4%.
For `COC(=O)c1ccc2c(c1)nc(Nc1ccccc1C)c1nc(S(C)(=O)=O)ncc12`, the IC50 in experiment [1] (setting [5]) was more than 10 µM; in experiment [3], more than 30 µM. Besides, in experiment [2], the inhibition at 0.5 µM is 25.3%.
Taken in the same sequence, the figures for `Cc1c(-c2cc(Nc3nc4cc(C(=O)O)ccc4c4cnccc34)n(C)n2)sc2ccc(Cl)cc12` were more than 10 µM, 19.6 µM and 4.53%.
For the compound `Cc1ccc(Nc2nc3cc(C(=O)O)ccc3c3cnccc23)nc1`, the IC50 in experiment [1] (setting [5]) is more than 10 µM; in experiment [2], more than 1.1 µM; in experiment [3], 1.26 µM. Further, the inhibition at 0.5 µM in experiment [2] is 48.3%.
Regarding `O=C(O)c1ccc2c(c1)nc(N1CCC(c3ccccc3)C1)c1ccncc12` (centres unmarked), the IC50 in experiment [1] (setting [5]) was more than 10 µM; in experiment [3] it was more than 30 µM. In addition, the inhibition at 0.5 µM in experiment [2] was 1.04%.
Taken in the same sequence, the figures for `O=C(O)c1ccc2c(c1)nc(Nc1cccc(Oc3ccccc3)c1)c1ccncc12` were more than 10 µM, more than 30 µM and 44.1%.
`O=C(O)c1ccc2c(c1)nc(Nc1ccc(OC(F)(F)F)cc1)c1ccncc12`: the results for the IC50 in experiment [1] (setting [5]), in experiment [2] and in experiment [3] were more than 10 µM, 0.668 µM and 4.7 µM, respectively. In experiment [2], the inhibition at 0.5 µM was 68.3%.
Taken in the same sequence, the figures for `COc1cc(Nc2nc3cc(C(=O)O)ccc3c3cnccc23)ccc1C` were more than 10 µM, 0.744 µM, 10.7 µM and 75.8%.
Take `Cc1ccc(C(N)=O)cc1Nc1nc2cc(C(=O)O)ccc2c2cnccc12`: the IC50 was more than 10 µM in experiment [1] (setting [5]) and more than 30 µM in experiment [3]. The inhibition at 0.5 µM in experiment [2] was 9.95%.
`O=C(O)c1ccc2c(c1)nc(Nc1cccc(OC(F)(F)F)c1)c1ccncc12`: the IC50 in experiment [1] (setting [5]) was more than 10 µM; in experiment [2], 0.711 µM; in experiment [3], 7.44 µM. Moreover, in experiment [2], the inhibition at 0.5 µM came out at 87.3%.
Taken in the same sequence, the figures for `COc1ccccc1Nc1nc2cc(C(=O)O)ccc2c2cnccc12` were more than 10 µM, 0.698 µM, 10.4 µM and 75.8%.
Take `COC(=O)c1ccc2c(c1)nc(NC1CC1)c1nc(SCc3ccccc3Cl)ncc12` [drawing 1611]: the IC50 in experiment [1] (setting [5]) was more than 10 µM; in experiment [3] it was 4.67 µM. The inhibition at 0.5 µM in experiment [2] was -0.924%.
Taken in the same sequence, the figures for `O=C(O)c1ccc2c(c1)nc(NC1CC1)c1nc(SCc3ccccc3Cl)ncc12` [drawing 1614] were more than 10 µM, 29.3 µM and 7.49%.

The values are drawn from patent US8168651B2, “Protein kinase modulators” (Cylene Pharmaceuticals, Inc., priority 2008, dated 2012).
